1 molecule from patent US8790640B1, “Treating inflammation with a binding system” (LiveLeaf, Inc., priority 2011, dated 2014) can be followed below.

The nature of the series: Hydrogen peroxide retention of extracts after desiccation and rehydration (colorimetric strips). The class given is physicochemical. Conditions: dissolved in 35% hydrogen peroxide, heated at 80° C., rehydrated. How it is done: In order to compare the samples provided above, a test series was prepared in 30 ml tubes containing from 1 g˜10 g of the above extracts of Chinese Gall, Green Tea, Pomegranate and Resveratrol. Each was dissolved in 20 ml of 35% hydrogen peroxide then separate to two aliquots. One part was heated at 80° C. to a dark viscous semi-liquid and allowed to desiccate to a final volume of 5 ml. Each was rehydrated and serially diluted to detection range.

On to `Oc1ccc(C=Cc2cc(O)cc(O)c2)cc1` [resveratrol, Resveratrol], for which the peroxide retention capability result is given as “relatively less ability to form stable perhydrates”.
